Reference: paper PMC4446607, “Tilapia Piscidin 4 (TP4) Stimulates Cell Proliferation and Wound Closure in MRSA-Infected Wounds in Mice” (Marine Drugs, 2015)

How the values were obtained:
[1] = test system: MRSA; assay: Mouse model of MRSA sepsis (survival, lethality, bacterial counts in organs); type: in vivo, Staphylococcus aureus; details: for Survival rate at eight days after MRSA infection: i.p. treatment 10 min later: TP4 0.005 mg/g, vancomycin 0.01 mg/g, methicillin 0.01 mg/g; for Survival rate at eight days after MRSA infection / % lethality: n = 10; for Mean ± SD Count (CFU/mL) Blood / Mean ± SD Count (CFU/mL) Liver / Mean ± SD Count (CFU/mL) Mesenteric Lymph Nodes / Mean ± SD Count (CFU/mL) Peritoneum / Mean ± SD Count (CFU/mL) Spleen / % lethality: MRSA-infected mice, TP4 0.005 mg/g, methicillin or vancomycin 0.01 mg/g; for Mean ± SD Count (CFU/mL) Blood / Mean ± SD Count (CFU/mL) Liver / Mean ± SD Count (CFU/mL) Mesenteric Lymph Nodes / Mean ± SD Count (CFU/mL) Peritoneum / Mean ± SD Count (CFU/mL) Spleen: 48 h after i.p. treatment; for % lethality: monitored for 2 day following i.p. injection
Method: (§1) An MRSA strain commonly associated with human wound infections was selected to generate a polymicrobial solution [32]. The MRSA strain is a clinical isolate from stool obtained from Taipei City Hospital (Heping Fuyou branch). The strain was identified by routine laboratory methods and stored in 20% (vol/vol) glycerol at −80 °C. Tryptic Soy Broth (TSB) was used as the culture medium. HaCaT human keratinocyte cell line and Hs-68 human foreskin fibroblast cell line were grown in DMEM containing 10% (v/v) FBS, 0.37% (w/v) NaHCO3, penicillin (100 unit/mL), streptomycin (100 μg/mL), 0.1 mM NEAA, and 1 mM sodium pyruvate at 37 °C in a humidified incubator under 5% CO2 and 95% air. The cells were harvested at ca. 90% confluence (ca. 10^6 cells/10-cm dish). Balb/c female mice were used for the experiments. All mice were housed in cages under specific pathogen-free conditions, and given water and standard laboratory chow ad libitum during the experiments. All animal handing procedures were in accordance with National Taiwan Ocean University (NTOU) guidelines. All procedures were approved by the Animal Care and Use Committee of NTOU.
Female Balb/c mice (6–8 weeks old) were injected intraperitoneally with 10^6 CFU MRSA per mouse. Ten minutes after MRSA injection, mice were injected intraperitoneally with vancomycin (0.01 mg/g mouse body weight), methicillin (0.01 mg/g mouse body weight), or TP4 (0.005 mg/g mouse body weight). In a second set of experiments, mice were given intraperitoneal injections of TP4 (0.005 mg/g mouse body weight) at 10, 60, 120, or 180 min after MRSA injection. Survival rate and status were recorded every 24 h for up to 192 h. To examine bacterial dissemination, mice were sacrificed at 48 h after injection with antibiotics or TP4, and the bacterial numbers in blood, peritoneum, spleen, liver, and mesenteric lymph nodes were recorded. Colony counts from the diluted bacterial solutions were expressed relative to those at the start of treatment. These experiments consisted of four groups, and each group contained 10 mice.

[2] = test system: EGF, TGF-β and VEGF gene expression in wound tissue; assay: Real-time RT-PCR of EGF, TGF-β and VEGF gene expression in wound tissue of MRSA-infected mice; type: in vivo
Method: (§2) Total RNA was isolated from HaCaT and Hs-68 cells, and purified using a Qiagen RNeasy kit. Reverse transcription into cDNA was performed with an iScript cDNA Synthesis Kit (Cat. No. 1708991; BIO-RAD, Hercules, CA, USA) according to the manufacturer’s recommendations. Real-time polymerase chain reaction (PCR) was performed to analyze gene expression, using […] of cDNA, 2× iQSYBR® Green Supermix (Cat. No. 1708882; BIO-RAD, Hercules, CA, USA), and 500 nM of forward and reverse primers against selected genes or GAPDH (reference gene), according to the instructions of the manufacturer. Quantitative PCR was performed under the following conditions: 40 cycles of 1 min at 95 °C, 30 s at 55 °C, and 1 min at 72 °C. The threshold cycle number (Ct) was calculated with BIO-RAD software. Relative transcript quantities were calculated using the ΔCt method with GAPDH as the internal reference gene. ΔCt is the difference in the threshold cycles of messenger (m) RNA for selected genes relative to those of GAPDH mRNA. Real-time PCR was performed in triplicate for each experimental group.
Tracings were taken immediately after injury. For uncontaminated wounds, wound size was determined every second day. […] Wound areas were determined using the Macintosh Adobe Photoshop program, Histogram Analysis. The percentage of wound contraction was calculated as follows: % Wound contraction = (A0 − At)/A0× 100, where A0 is the original wound area, and At is the area of wound at the time of biopsy, accordingly. Cell proliferation gene expression was performed by real-time PCR, using the methods described in Section 4.4 above.

[3] = test system: collagen I, collagen III and KGF gene expression in Hs-68 cells; assay: Real-time qPCR of collagen I, collagen III and KGF gene expression in Hs-68 cells; type: cell-based, human; details: TP4 6.25 μg/mL, 48 h, GAPDH reference
Method: as §2

[4] = test system: TNF, IL-6 and IL-1 in serum; assay: Serum cytokines (TNF, IL-6, IL-1) by ELISA in mice with MRSA-infected wounds; type: in vivo; details: MRSA-infected wound
Method: (§3) Female Balb/c mice (6–8 weeks old) were used for wound healing experiments. All mice were housed individually to prevent fighting and further damage to the wounds, and they were provided with food and water ad libitum. Mice were maintained on a 12 h light: dark cycle at room temperature, and acclimatized to the environment for at least a week before use in experiments. All researchers wore caps, sterile gloves, gowns, and shoe covers when handling mice. Hair was removed from the back of the mice by shaving, and a full thickness wound (1 cm in diameter) was then created in the exposed region. Each wound was inoculated with 50 µL of broth mix containing 10^6 CFU (colony forming units) of MRSA. At 5 min after inoculation, 50 µL TP4 (2 mg/mL) in a total volume of 0.1 mL were applied to the wound. Thirty minutes after treatment, wounds were covered with Tegaderm (3 M, St. Paul, MN, USA) to maintain uniformity, and to prevent the mice from removing the treatments. Based on initial experiments, we examined the wounds at 3, 7, 14, and 21 days post-injury, so as not to disturb the infection. Such examinations captured the transitions from inflammatory to regenerative, and regenerative to resolving phases of wound healing. Animals were subsequently euthanized by CO2 inhalation and the wounds assessed. Four individuals in each group were examined at each time point for each experiment. Each wound was measured and then removed from the animal, with unwounded skin taken from the contralateral dorsum as a control. Each biopsy was divided into six sections, with three sections being used for tensiometry and histology, and three sections for quantitative determination of microbial load. Wound healing studies were repeated in triplicate.
Skin tissues were removed and fixed as previously described. In brief, the cryosections were fixed with 4% formaldehyde, and the tissue samples were stained with VEGF. IHC was analyzed by three independent investigators. Images were taken using a BX-51 microscope (Olympus, Japan). ELISA was performed as previously described.

[5] = test system: MRSA-infected wounds; assay: Mouse model of wound healing, full-thickness wounds contaminated with MRSA (wound closure); type: in vivo, Balb/c mice
Method: as §3, with “Thirty minutes after treatment, wounds were covered with Tegaderm (3 M, St. Paul, MN, USA) to maintain uniformity, and to prevent the mice from removing the treatments. Based on initial experiments, we examined the wounds at 3, 7, 14, and 21 days post-injury, so as not to disturb the infection. Such examinations captured the transitions from inflammatory to regenerative, and regenerative to resolving phases of wound healing.” left out, “Four individuals in each group were examined at each time point for each experiment.” left out, “Wound healing studies were repeated in triplicate.” left out
Tracings were taken immediately after injury. For uncontaminated wounds, wound size was determined every second day. […] Wound areas were determined using the Macintosh Adobe Photoshop program, Histogram Analysis. […]

[6] = test system: HaCaT human keratinocyte cell line; type: cell-based; details: HaCaT cells
Method: as §1
(§4) Cells were cultured at a density of 5 × 10^4 cells per well in flat-bottomed 96-well plates, and supplemented with various combinations of TP4. After 24 h, cell viability were measured with neutral red (Cat. No. N4638; Sigma, St. Louis, MO, USA) uptake assay, Cytotoxicity Detection Kit (LDH) (Cat. No. 11644793001; Roche Applied Science, Indianapolis, IN, USA), and CellTiter 96 Aqueous One Solution (Cat. No. G1111; Promega, Madison, WI, USA), following the vendors’ instructions.

[7] = test system: Hs-68 human foreskin fibroblast cell line; type: cell-based
Method: as §1, §4

[8] = test system: keratin 10 and keratin 17 gene expression in HaCaT cells; assay: Real-time qPCR of keratin 10 and keratin 17 gene expression in HaCaT cells; type: cell-based, human; details: TP4 6.25 µg/mL, 48 h, GAPDH reference
Method: as §2

[9] = Balb/c mice, MRSA 1 × 10^6 CFU/mouse i.p.
[10] = Balb/c mice, MRSA 1 × 10^6 CFU/mouse i.p., TP4 0.005 mg/g i.p.

Compound | Survival rate at eight days after MRSA infection [1, 9] [%] | Mean ± SD Count (CFU/mL) Blood [1] | Mean ± SD Count (CFU/mL) Liver [1] | Mean ± SD Count (CFU/mL) Mesenteric Lymph Nodes [1] | Mean ± SD Count (CFU/mL) Peritoneum [1] | Mean ± SD Count (CFU/mL) Spleen [1] | % lethality [1] | further results
COc1cccc(OC)c1C(=O)N[C@@H]1C(=O)N2[C@@H]1SC(C)(C)[C@@H]2C(=O)O [methicillin] | 0 | 4.1 × 10^7 ± 1.3 × 10^7 B CFU/mL | 2.7 × 10^8 ± 3.3 × 10^6 B CFU/mL | 4.1 × 10^7 ± 3 × 10^7 C CFU/mL | 2.3 × 10^9 ± 2 × 10^8 B CFU/mL | 1.5 × 10^8 ± 2.1 × 10^7 B CFU/mL | 20 ^B % | 
CN[C@H](CC(C)C)C(=O)N[C@H]1C(=O)N[C@@H](CC(N)=O)C(=O)N[C@H]2C(=O)N[C@H]3C(=O)N[C@H](C(=O)N[C@H](C(=O)O)c4cc(O)cc(O)c4-c4cc3ccc4O)[C@H](O)c3ccc(c(Cl)c3)Oc3cc2cc(c3O[C@@H]2O[C@H](CO)[C@@H](O)[C@H](O)[C@H]2O[C@H]2C[C@](C)(N)[C@H](O)[C@H](C)O2)Oc2ccc(cc2Cl)[C@H]1O [vancomycin] | 80 | 8 × 10^4 ± 1.1 × 10^4 B CFU/mL | 1.3 × 10^7 ± 1.8 × 10^5 B CFU/mL | 1 × 10^7 ± 4 × 10^6 B CFU/mL | 1.5 × 10^6 ± 1 × 10^5 A CFU/mL | 1.4 × 10^7 ± 1.1 × 10^6 B CFU/mL | 10% | 
H-FIHHIIGGLFSAGKAIHRLIRRRRR-OH [TP4, Tilapia piscidin 4] | 100 | 0 ^A CFU/mL | 2.4 × 10^6 ± 1 × 10^6 A CFU/mL | 6 × 10^5 ± 1 × 10^5 A CFU/mL | 1 × 10^6 ± 1 × 10^6 A CFU/mL | 3 × 10^6 ± 1.2 × 10^6 A CFU/mL | 0 ^A % | EGF gene expression compared to control and vancomycin-treated mice ([2]; 3 days post-infection): enhanced gene expression; VEGF gene expression compared to control and vancomycin-treated mice ([2]; 14 days post-infection): enhanced gene expression; TGF gene expression compared to control and vancomycin-treated mice ([2]; seven days post-infection): enhanced gene expression; Collagen I gene expression versus untreated controls [3]: enhanced; Collagen III gene expression versus untreated controls [3]: enhanced; KGF gene expression versus untreated controls [3]: enhanced; IL-1 compared with control wounds [4]: statistically significant enhancement; Induction of IL-6 compared to MRSA-infected positive controls ([4]; three days after treatment): decreased induction; Induction of TNF compared to MRSA-infected positive controls ([4]; three days after treatment): decreased induction; Wound size by 14 days ([5]; MRSA-contaminated wounds, P < 0.05): smaller than that of the vancomycin-treated group; Wound closure compared with the control ([5]; contaminated wounds (increase not observed in uncontaminated wounds)): accelerated; TP4 concentration at which stimulation of proliferation / gene expression was detectable [6]: 6.25 µg/mL; TP4 concentration at which stimulation of proliferation / gene expression was detectable ([7]; Hs-68 cells): 6.25 µg/mL; Doses at which Hs-68 cell proliferation was significantly increased ([7]; change in cell viability compared to the untreated group, neutral red, LDH, MTT): 2.5~10 μg/mL; Survival rate, TP4 injected 10 min after MRSA [1, 10]: 100%; Survival rate, TP4 injected 60 min after MRSA [1, 10]: 80%; Survival rate, TP4 injected 120 min after MRSA [1, 10]: 60%; Survival rate, TP4 injected 180 min after MRSA [1, 10]: 50%; Keratin 10 gene expression versus untreated controls [8]: significantly increased; Keratin 17 gene expression versus untreated controls [8]: did not affect
